Columns and labels:
[1] = Particle size and polydispersity index of nanoparticle compositions (Zetasizer Nano ZS); type: physicochemical
Experimental: A Zetasizer Nano ZS (Malvern Instruments Ltd, Malvern, Worcestershire, UK) can be used to determine the particle size, the polydispersity index (PDI) and the zeta potential of the nanoparticle compositions in 1×PBS in determining particle size and 15 mM PBS in determining zeta potential.
(§1) Initial studies were performed to compare the delivery efficiency of nanoparticle compositions including various compounds according to Formula (I), (IA), (IB), (II), (IIa), (IIb), (IIc), (IId), (IIe), (IIf), (IIg), or (III). The cationic lipid MC3 is a current standard in the art. Accordingly, the standard MC3 formulation including about 50 mol % MC3, about 10 mol % DSPC, about 38.5 mol % cholesterol, and about 1.5 mol % PEG-DMG was used as a basis for this study. Nanoparticle compositions including DSPC as a phospholipid, cholesterol as a structural lipid, PEG-DMG as a PEG lipid, an RNA, and a compound according to Formula (I), (IA), (IB), (II), (IIa), (IIb), (IIc), (IId), (IIe), (IIf), (IIg), or (III) selected from Compounds 1-159, 168-170, and 173-175 were prepared according to or via methods similar to those described in Examples 1 and 2. The ratios of the lipids were 50:10:38.5:1.5 mol % for the lipid according to Formula (I), (IA), (IB), (II), (IIa), (IIb), (IIc), (IId), (IIe), (IIf), (IIg), or (III):DSPC:cholesterol:PEG-DMG. The RNA used was an mRNA encoding luciferase (Luc) or hEPO, wherein each uridine was replaced N1-methyl pseudouridine. Tables 1A-1E summarize the content and characteristics of the formulations.

luciferase (Luc) mRNA = experiment: Luciferase expression (whole body bioluminescence) after intravenous administration to mice; type: in vivo
Experimental: In order to monitor how effectively various nanoparticle compositions deliver therapeutic and/or prophylactics to targeted cells, different nanparticle compositions including a particular therapeutic and/or prophylactic (for example, a modified or naturally occurring RNA such as an mRNA) are prepared and administered to rodent populations. Mice are intravenously, intramuscularly, intraarterially, or intratumorally administered a single dose including a nanoparticle composition with a formulation such as those provided in Example 3. In some instances, mice may be made to inhale doses. Dose sizes may range from 0.001 mg/kg to 10 mg/kg, where 10 mg/kg describes a dose including 10 mg of a therapeutic and/or, prophylactic in a nanoparticle composition for each 1 kg of body mass of the mouse. A control composition including PBS may also be employed.
Upon administration of nanoparticle compositions to mice, dose delivery profiles, dose responses, and toxicity of particular formulations and doses thereof can be measured by enzyme-linked immunosorbent assays (ELISA), bioluminescent imaging, or other methods. For nanoparticle compositions including mRNA, time courses of protein expression can also be evaluated. Samples collected from the rodents for evaluation may include blood, sera, and tissue (for example, muscle tissue from the site of an intramuscular injection and internal tissue); sample collection may involve sacrifice of the animals.
The efficacy of the nanoparticle compositions presented in Table 1A was evaluated with a bioluminescence study. Formulations were administered intravenously to mice (n=6) at a dosage of 0.5 mg/kg (mpk) and bioluminescence measured at 3, 6, and 24 hour time points. The standard MC3 formulation and, in some instances, a control (e.g., a PBS control) were evaluated for comparison. […] In general, flux decreased as time progressed to less than 10% of the initial flux.
The total flux (measured by area under the curve, AUC) induced by administration of a formulation including a given lipid relative to that induced by administration of a formulation including MC3 was also measured for several lipids.

modified luciferase = experiment: Luciferase expression in liver, lung, spleen and femur 6 hours after intravenous administration to mice; type: in vivo; settings: 6 hours after intravenous 0.5 mpk, mice
Experimental: The efficacy of the nanoparticle compositions presented in Table 1A was further evaluated by measuring the expression of modified luciferase in the liver, lung, spleen, and femur upon administration of a given composition. Formulations were administered intravenously to mice (n=3) at a dosage of 0.5 mpk and bioluminescence measured after 6 hours. The standard MC3 formulation and a PBS control were also tested. […] Flux in the liver was lowest for compositions including Compounds 58, 59, 137, and 141. Flux in the spleen was highest for compositions including Compounds 4, 7, 33, 34, 48, 53, 108, 129, 130, and 148, and lowest for compositions including Compounds 9, 59, 124, and 141.

[2] = Encapsulation efficiency of RNA in nanoparticle compositions (RIBOGREEN assay); type: physicochemical; settings: Table 1A; lipid:DSPC:cholesterol:PEG-DMG 50:10:38.5:1.5 mol %
Experimental: For nanoparticle compositions including an RNA, a QUANT-IT™ RIBOGREEN® RNA assay (Invitrogen Corporation Carlsbad, Calif.) can be used to evaluate the encapsulation of an RNA by the nanoparticle composition. The samples are diluted to a concentration of approximately 5 μg/mL, in a TE buffer solution (10 mM Tris-HCl, 1 mM EDTA, pH 7.5). 50 μL of the diluted samples are transferred to a polystyrene 96 well plate and either 50 μL of TE buffer or 50 μL of a 2% Triton X-100 solution is added to the wells. The plate is incubated at a temperature of 37° C. for 15 minutes. The RIBOGREEN® reagent is diluted 1:100 in TE buffer, and 100 μL of this solution is added to each well. The fluorescence intensity can be measured using a fluorescence plate reader (Wallac Victor 1420 Multilabel Counter; Perkin Elmer, Waltham, Mass.) at an excitation wavelength of, for example, about 480 nm and an emission wavelength of, for example, about 520 nm. The fluorescence values of the reagent blank are subtracted from that of each of the samples and the percentage of free RNA is determined by dividing the fluorescence intensity of the intact sample (without addition of Triton X-100) by the fluorescence value of the disrupted sample (caused by the addition of Triton X-100).
as §1

[3] = Table 1A, lipid:DSPC:cholesterol:PEG-DMG 50:10:38.5:1.5 mol %
[4] = intravenous administration (Table 3D)

Structure (SMILES): CCCCCCCCC(CCCCCCCC)OC(=O)CCCCCCCN(CCO)CCCCCCCC(=O)OC1CCC(CCCCC)CC1 (stereo not drawn) [Compound 66, Heptadecan-9-yl 8-((2-hydroxyethyl)(8-oxo-8-((4-pentylcyclohexyl)oxy)octyl)amino)octanoate]
- Size [1, 3]: 76.7 nm
- AUC (luciferase (Luc) mRNA; i.v. administration (Table 3C)): 6.76E+11 h*p/s
- Total Flux, Liver (modified luciferase): 5.01E+09
- Total Flux, Lung (modified luciferase): 4.20E+06
- Total Flux, Spleen (modified luciferase): 2.00E+07

Structure (SMILES): CCCCCCCCC(CCCCCCCC)OC(=O)CCCCCCCN(CCO)CCCC(=O)OC(CCCCCC)CCCCCCCC (stereo not drawn) [Compound 73, Heptadecan-9-yl 8-((2-hydroxyethyl)(4-oxo-4-(pentadecan-7-yloxy)butyl)amino)octanoate]
- Size [1, 3]: 59.2 nm
- EE [2]: 95.7%
- Total Flux, Liver (modified luciferase): 7.93E+08
- Total Flux, Lung (modified luciferase): 6.17E+06
- Total Flux, Spleen (modified luciferase): 9.45E+06

Structure (SMILES): CCCCCCCCCOC(=O)CCCCCCCN(CCO)CCCCCCCC(=O)OC1CCC(CCCCC)CC1 (stereo not drawn) [Compound 79, Nonyl 8-((2-hydroxyethyl)(8-oxo-8-((4-pentylcyclohexyl)oxy)octyl)amino)octanoate]
- Size [1, 3]: 93.7 nm
- EE [2]: 89.1%
- Total Flux, Liver (modified luciferase): 3.15E+06
- Total Flux, Lung (modified luciferase): 6.13E+04
- Total Flux, Spleen (modified luciferase): 6.45E+05

Structure (SMILES): CCCCCCCCCOC(=O)CCCCCCCN(CCO)CCCCCCCC(=O)OC1CCC(C2CCCCC2)CC1 (stereo not drawn) [Compound 80, [1,1′-Bi(cyclohexan)]-4-yl 8-((2-hydroxyethyl)(8-(nonyloxy)-8-oxooctyl)amino)octanoate]
- Size [1, 3]: 118 nm
- EE [2]: 90.7%
- Total Flux, Liver (modified luciferase): 1.09E+07
- Total Flux, Lung (modified luciferase): 8.97E+04
- Total Flux, Spleen (modified luciferase): 4.71E+06

Structure (SMILES): CCCCCCCCCOC(=O)CCCCCCCN(CCO)CCCCCCCC(=O)OC1CCCCCCCCCCCCCC1 [Compound 81, Cyclopentadecyl 8-((2-hydroxyethyl)(8-(nonyloxy)-8-oxooctyl)amino)octanoate]
- Size [1, 3]: 99.2 nm
- EE [2]: 95.4%
- Total Flux, Liver (modified luciferase): 2.74E+08
- Total Flux, Lung (modified luciferase): 6.23E+06
- Total Flux, Spleen (modified luciferase): 4.49E+07

Structure (SMILES): CCCCCCCCCOC(=O)CCCCCCCN(CCCCCCCC(=O)OC(CCCCCCCC)CCCCCCCC)CCN1CCN(C)CC1 [Compound 101, Heptadecan-9-yl 8-((2-(4-methylpiperazin-1-yl)ethyl)(8-(nonyloxy)-8-oxooctyl)amino)octanoate]
- Size [1, 3]: 91.7 nm
- AUC (luciferase (Luc) mRNA; i.v. administration (Table 3C)): 1.8E+09 h*p/s
- Total Flux, Liver (modified luciferase): 1.27E+07
- Total Flux, Lung (modified luciferase): 1.77E+05
- Total Flux, Spleen (modified luciferase): 5.60E+06

Structure (SMILES): CCCCCCCCCOC(=O)CCCCCCCN(CCCCCCCC(=O)OC(CCCCCCCC)CCCCCCCC)CCCNC(=S)NC [Compound 113, Heptadecan-9-yl 8-((3-(3-methylthioureido)propyl)(8-(nonyloxy)-8-oxooctyl)amino)octanoate]
- Size [1, 3]: 86.8 nm
- Size ([1]; Table 1C, compositions for subcutaneous administration): 83.9 nm
- Novel lipid/MC3 ratio, i.v. (luciferase (Luc) mRNA; Table 3G, intravenous, luciferase, 6 hr. timepoint, relative to MC3): 0.59
- Novel lipid/MC3 expression ratio, i.v. (luciferase (Luc) mRNA; intravenous, luciferase, 6 hr. time point, relative to MC3 formulation): 0.59
- Total Flux, Liver (modified luciferase): 1.11E+09
- Total Flux, Lung (modified luciferase): 5.55E+06
- Total Flux, Spleen (modified luciferase): 5.22E+07

Structure (SMILES): CCCCCCCCCOC(=O)CCCCCCCN(CCO)CCCCCCCCCOP(=O)(OCCCCCCCCC)OCCCCCCCCC [Compound 127, Nonyl 8-((9-((bis(nonyloxy)phosphoryl)oxy)nonyl)(2-hydroxyethyl)amino)octanoate]
- Size [1, 3]: 110.4 nm
- EE [2]: 89.5%
- Total Flux, Liver (modified luciferase): 1.94E+08
- Total Flux, Lung (modified luciferase): 5.26E+06
- Total Flux, Spleen (modified luciferase): 3.21E+08

Structure (SMILES): CCCCCCCCCCCOC(=O)CCCCCN(CCO)CCCCCCCC(=O)N(CCCCCCCC)CCCCCCCC [Compound 129, Undecyl 6-((8-(dioctylamino)-8-oxooctyl)(2-hydroxyethyl)amino)hexanoate]
- Size [1, 3]: 86.3 nm
- EE [2]: 77.2%
- Total Flux, Liver (modified luciferase): 6.65E+08
- Total Flux, Lung (modified luciferase): 9.89E+06
- Total Flux, Spleen (modified luciferase): 5.09E+08

Structure (SMILES): CCCCCCCCCOC(=O)CCCCCCCN(CCO)CCCCCCCOP(=O)(OCCCCCCCC)OCCCCCCCC [Compound 131, Nonyl 8-((7-((bis(octyloxy)phosphoryl)oxy)heptyl)(2-hydroxyethyl)amino)octanoate]
- EE [2]: 75.44%
- AUC (luciferase (Luc) mRNA; i.v. administration (Table 3C)): 9.29E+10 h*p/s
- Total Flux, Liver (modified luciferase): 3.52E+08
- Total Flux, Lung (modified luciferase): 1.45E+07
- Total Flux, Spleen (modified luciferase): 8.32E+08

Structure (SMILES): CCCCCCCCC(CCCCCCCC)OC(=O)CCCCCCCN(C)CCCCCCCCCC(=O)OCCCCCCC [Compound 149, Heptyl 10-((8-(heptadecan-9-yloxy)-8-oxooctyl)(methyl)amino)decanoate]
- Size [1, 3]: 62.1 nm
- AUC (luciferase (Luc) mRNA; [4]): 1.057E+011 p/s*h
- Total Flux, Liver (modified luciferase): 1.11E+09
- Total Flux, Lung (modified luciferase): 2.69E+06
- Total Flux, Spleen (modified luciferase): 2.71E+07

Structure (SMILES): CCCCCCCCCOC(=O)CCCCCCCN(CCO)CCCCCCC/C=C\C(CCCCCCCC)CCCCCCCC [Compound 152, Nonyl (Z)-8-((2-hydroxyethyl)(10-octyloctadec-8-en-1-yl)amino)octanoate]
- Size [1, 3]: 62.6 nm
- AUC (luciferase (Luc) mRNA; [4]): 2.855E+010 p/s*h
- Total Flux, Liver (modified luciferase): 1.43E+08
- Total Flux, Lung (modified luciferase): 3.16E+05
- Total Flux, Spleen (modified luciferase): 6.63E+06

Structure (SMILES): CCCCCCCCCOC(=O)CCCCCCCN(CCO)CCCCCCCCCC(CCCCCCCC)CCCCCCCC [Compound 153, Nonyl 8-((2-hydroxyethyl)(10-octyloctadecyl)amino)octanoate]
- Size [1, 3]: 83.7 nm
- AUC (luciferase (Luc) mRNA; [4]): 2.697E+011 p/s*h
- Total Flux, Liver (modified luciferase): 1.18E+09
- Total Flux, Lung (modified luciferase): 6.42E+06
- Total Flux, Spleen (modified luciferase): 1.42E+08

Structure (SMILES): CCCCCCCCCOC(=O)CCCCCCCN(CCO)CCN(CCO)CCCCCCCC(=O)OC(CCCCCCCC)CCCCCCCC [Compound 159, Heptadecan-9-yl 8-((2-hydroxyethyl)(2-((2-hydroxyethyl)(8-(nonyloxy)-8-oxooctyl)amino)ethyl)amino)octanoate]
- Size [1, 3]: 75.9 nm
- AUC (luciferase (Luc) mRNA; [4]): 1.355E+008 p/s*h
- Total Flux, Liver (modified luciferase): 1.13E+06
- Total Flux, Lung (modified luciferase): 2.17E+05
- Total Flux, Spleen (modified luciferase): 7.24E+05
